From PMC6008492, “Structure activity relationship studies on rhodanines and derived enethiol inhibitors of metallo-β-lactamases” (Bioorganic & Medicinal Chemistry, 2018)
Like-named read-outs stand apart in the source and are kept apart here.

Legend:
SPM-1 = SPM-1 (Pseudomonas aeruginosa, UniProt Q8G9Q0); experiment: SPM-1 inhibition, fluorogenic cephalosporin (FC5) hydrolysis; assay type: biochemical
Protocol: (§1) Inhibition analyses against bacterial MBLs and SBLs were performed as described previously.[22], [24], [26] Residual enzyme activities were determined for a range of inhibitor concentrations. Non-linear regression fitting of IC50 curves was carried out using a three-parameter dose–response curve in GraphPad Prism. Errors in IC50 values are expressed as: σ(logIC50)/logIC50×IC50
(§2) We first screened the inhibitors against a representative set of presently clinically important and other MBLs[22], comprising both Class B1 enzymes (NDM-1, New Delhi MBL-1; VIM-2, Verona integron–encoded MBL-2; BcII, Bacillus cereus II MBL; SPM-1, São Paulo MBL-1; IMP-1, imipenemase MBL-1) and the Class B2 MBL CphA (carbapenem hydrolysing MBL from Aeromonas hydrophila).[22] The latter MBL (CphA) only utilises one active site Zn(II) ion in catalysis, whilst the others normally use two Zn(II) ions.
Figure S5: IC50 curves for SPM-1 inhibition time courses. Residual activities were calculated from the
(§3) initial rate of FC5 hydrolysis after incubation of the enzyme with the inhibitor for 10 minutes. […]

CphA = molecular target: T1, CphA (Aeromonas hydrophila, UniProt P26918); experiment: CphA (subclass B2 MBL) inhibition; assay type: biochemical
T1 construct: made in house
T1 sequence (P26918 28-254): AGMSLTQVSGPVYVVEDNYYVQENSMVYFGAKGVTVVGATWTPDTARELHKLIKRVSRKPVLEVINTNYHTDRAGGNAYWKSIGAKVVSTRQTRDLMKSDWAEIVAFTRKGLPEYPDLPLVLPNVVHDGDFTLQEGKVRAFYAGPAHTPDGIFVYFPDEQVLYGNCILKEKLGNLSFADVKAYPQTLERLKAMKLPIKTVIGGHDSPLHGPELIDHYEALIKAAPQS
Protocol: as §1
as §2, with “ions. We also screened the inhibitors against a representative panel of SBLs from different classes (TEM-1, Temoneira β-lactamase-1, class A; CTX-M-15, cefotaxime hydrolysing β-lactamase from Munich 15, class A, extended spectrum β-lactamase (ESBL); AmpC E. coli, class C, and OXA-10, oxacillinase-10, class D).” for “ions.”

VIM-2 = molecular target: T2, VIM-2 (Escherichia coli, UniProt Q5U7L7); experiment: biochemical
T2 construct: made in house
Protocol: as §1
as §2, with “ions. We also screened the inhibitors against a representative panel of SBLs from different classes (TEM-1, Temoneira β-lactamase-1, class A; CTX-M-15, cefotaxime hydrolysing β-lactamase from Munich 15, class A, extended spectrum β-lactamase (ESBL); AmpC E. coli, class C, and OXA-10, oxacillinase-10, class D).” for “ions.”
Figure S6: IC50 curves for VIM-2 inhibition time courses. Residual activities were calculated from the
as §3

IMP-1 = molecular target: T3, IMP-1 (Serratia marcescens, UniProt P52699); experiment: IMP-1 inhibition, fluorogenic cephalosporin (FC5) hydrolysis; assay type: biochemical
T3 construct: made in house
T3 sequence (P52699 19-246, looked up, species assumed): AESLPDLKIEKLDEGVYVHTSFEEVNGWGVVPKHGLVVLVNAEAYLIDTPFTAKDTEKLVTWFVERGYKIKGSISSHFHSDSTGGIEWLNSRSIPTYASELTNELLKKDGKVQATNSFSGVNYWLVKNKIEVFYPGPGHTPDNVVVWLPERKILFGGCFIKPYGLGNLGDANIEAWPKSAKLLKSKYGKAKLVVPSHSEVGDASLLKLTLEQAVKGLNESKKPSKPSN
Protocol: as §1, §2
Figure S3: IC50 curves for IMP-1 inhibition time courses. Residual activities were calculated from the
initial rate of FC5 hydrolysis after incubation of the enzyme with the inhibitor for 10 minutes.

NDM-1 = molecular target: T4, NDM-1 (Klebsiella pneumoniae, UniProt C7C422); experiment: NDM-1 inhibition, fluorogenic cephalosporin (FC5) hydrolysis; assay type: biochemical
T4 construct: made in house
T4 sequence (C7C422 29-270, looked up, species assumed): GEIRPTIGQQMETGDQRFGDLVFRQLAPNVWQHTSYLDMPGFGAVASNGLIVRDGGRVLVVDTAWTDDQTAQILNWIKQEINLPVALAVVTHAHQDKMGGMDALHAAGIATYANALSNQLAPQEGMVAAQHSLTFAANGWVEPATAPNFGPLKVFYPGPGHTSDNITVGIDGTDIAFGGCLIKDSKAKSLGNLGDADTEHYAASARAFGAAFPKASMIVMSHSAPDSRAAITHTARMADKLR
Protocol: as §1, §2
Figure S4: IC50 curves for NDM-1 inhibition time courses. Residual activities were calculated from the
as §3

BcII = molecular target: T5, BcII (Bacillus cereus, UniProt P04190); experiment: biochemical
T5 construct: made in house
T5 sequence (P04190 31-257): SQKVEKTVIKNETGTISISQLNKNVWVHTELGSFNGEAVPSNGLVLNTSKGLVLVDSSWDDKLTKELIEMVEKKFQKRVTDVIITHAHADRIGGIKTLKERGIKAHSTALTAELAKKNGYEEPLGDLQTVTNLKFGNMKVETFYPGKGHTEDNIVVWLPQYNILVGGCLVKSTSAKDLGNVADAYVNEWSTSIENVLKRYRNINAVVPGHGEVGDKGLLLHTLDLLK
Protocol: as §1, §2
Figure S2: IC50 curves for BcII inhibition time courses. Residual activities were calculated from the initial
rate of FC5 hydrolysis after incubation of the enzyme with the inhibitor for 10 minutes. […]

[1] = test system: MBLs (SPM-1, IMP-1, BcII, VIM-2, NDM-1); assay type: biochemical; settings: for MBL inhibition, result in words: at 100 µM
Protocol: as §1
as §2, with “ions. We also screened the inhibitors against a representative panel of SBLs from different classes (TEM-1, Temoneira β-lactamase-1, class A; CTX-M-15, cefotaxime hydrolysing β-lactamase from Munich 15, class A, extended spectrum β-lactamase (ESBL); AmpC E. coli, class C, and OXA-10, oxacillinase-10, class D).” for “ions.”

[2] = 1H NMR time course stability (hydrolysis) test; assay type: physicochemical; settings: 200 µM, pH 7.5, presence or absence of NDM-1, timescale of the inhibition studies
Protocol: NMR experiments were carried out using a Bruker Avance III 700 MHz machine equipped with a TCI inverse cryoprobe or a Bruker Avance III HD 600 MHz spectrometer equipped with a Prodigy cryoprobe at 298 K. Data were analysed using Bruker Topspin 3.5. Processing of spectra was done with a Lorentzian line broadening of 0.3 Hz. Chemical shifts (δ) are given as parts per million (ppm) relative to residual HDO (δH 4.70 ppm for ^1H NMR).
For rhodanine stability studies solutions were buffered in either freshly prepared NH4HCO3 (50 mM, pH 7.50) or Tris-d11 (50 mM, pH 7.50) both with NaCl (100 mM) in D2O. ML302 stock solution (50 mM in DMSO‑d6) was added to a sample to give a final concentration of 200 µM. When specified, NDM-1 was added to give a final concentration of 1 µM. The reaction was followed at 1 h intervals over 18 h (Figs. S7 and S8).
Figure S7. […] A, 10 (200 µM) in NH4HCO3 (50 mM, pH
7.5 in D2O) in the absence of NDM-1, 1H NMR time course over 18 hours; B, 10 (200 µM) in NH4HCO3 (50 mM, pH 7.5 in D2O) in the presence of NDM-1 (1 µM), 1H NMR time course over 18 hours; C, 10 (200 µM) in Tris-d11 (50 mM, pH 7.5 in D2O) in the absence of NDM-1, 1H NMR time course over 18 hours; D, 10 (200 µM) in Tris-d11 (50 mM, pH 7.5 in D2O) and in the presence of NDM-1 (1 µM), 1H NMR time course over 18 hours. […]

CTX-M-15 = molecular target: T6, CTX-M-15 (Escherichia coli, UniProt Q9EXV5); experiment: SBL inhibition, CTX-M-15; assay type: biochemical; settings: read-out: residual activity CTX-M-15
T6 construct: made in house
T6 sequence (Q9EXV5 29-291, species assumed): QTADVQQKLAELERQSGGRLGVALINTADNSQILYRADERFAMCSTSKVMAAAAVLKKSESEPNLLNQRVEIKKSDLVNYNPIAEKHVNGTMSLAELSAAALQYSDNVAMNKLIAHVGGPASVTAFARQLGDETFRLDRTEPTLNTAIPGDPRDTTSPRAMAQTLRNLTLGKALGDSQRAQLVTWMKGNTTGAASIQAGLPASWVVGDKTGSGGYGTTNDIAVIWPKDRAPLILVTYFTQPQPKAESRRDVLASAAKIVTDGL
Protocol: as §1
as §2, with “ions. We also screened the inhibitors against a representative panel of SBLs from different classes (TEM-1, Temoneira β-lactamase-1, class A; CTX-M-15, cefotaxime hydrolysing β-lactamase from Munich 15, class A, extended spectrum β-lactamase (ESBL); AmpC E. coli, class C, and OXA-10, oxacillinase-10, class D).” for “ions.”
(§4) Figure S1. Residual activities of serine-β-lactamases (SBLs) upon inhibition by rhodanines and enethiols at
(§5) Inhibition of intact rhodanine on a panel of SBLs
(§6) Inhibition of intact rhodanine amide on a panel […]

AmpC = molecular target: T7, AmpC (Escherichia coli, UniProt P00811); experiment: SBL inhibition, AmpC; assay type: biochemical, E. coli; settings: read-out: residual activity AmpC
T7 construct: made in house
T7 sequence (P00811 20-377): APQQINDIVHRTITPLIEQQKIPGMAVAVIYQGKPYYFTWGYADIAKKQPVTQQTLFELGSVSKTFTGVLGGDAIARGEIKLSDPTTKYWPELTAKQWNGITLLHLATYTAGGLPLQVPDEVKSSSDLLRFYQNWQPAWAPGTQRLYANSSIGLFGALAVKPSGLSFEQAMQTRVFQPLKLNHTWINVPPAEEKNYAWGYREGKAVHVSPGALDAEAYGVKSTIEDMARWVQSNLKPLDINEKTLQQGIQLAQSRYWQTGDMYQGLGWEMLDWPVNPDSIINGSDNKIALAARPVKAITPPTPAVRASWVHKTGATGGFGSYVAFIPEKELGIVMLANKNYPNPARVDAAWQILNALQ
Protocol: as §1
as §2, with “ions. We also screened the inhibitors against a representative panel of SBLs from different classes (TEM-1, Temoneira β-lactamase-1, class A; CTX-M-15, cefotaxime hydrolysing β-lactamase from Munich 15, class A, extended spectrum β-lactamase (ESBL); AmpC E. coli, class C, and OXA-10, oxacillinase-10, class D).” for “ions.”
as §4, §5, §6

TEM-1 = molecular target: T8, TEM-1 (Escherichia coli, UniProt P62593); experiment: SBL inhibition, TEM-1; assay type: biochemical; settings: read-out: residual activity TEM-1
T8 construct: made in house
T8 sequence (P62593 24-286 limits assumed): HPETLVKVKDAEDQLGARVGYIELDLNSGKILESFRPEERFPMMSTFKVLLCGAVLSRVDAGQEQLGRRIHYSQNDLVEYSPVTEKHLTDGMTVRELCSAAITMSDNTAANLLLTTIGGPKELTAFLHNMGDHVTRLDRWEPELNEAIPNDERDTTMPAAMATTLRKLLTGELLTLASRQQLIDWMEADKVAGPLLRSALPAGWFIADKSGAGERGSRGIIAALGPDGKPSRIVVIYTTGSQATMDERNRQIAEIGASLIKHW
Protocol: as §1
as §2, with “ions. We also screened the inhibitors against a representative panel of SBLs from different classes (TEM-1, Temoneira β-lactamase-1, class A; CTX-M-15, cefotaxime hydrolysing β-lactamase from Munich 15, class A, extended spectrum β-lactamase (ESBL); AmpC E. coli, class C, and OXA-10, oxacillinase-10, class D).” for “ions.”
as §4, §5, §6

OXA-10 = molecular target: T9, OXA-10 (Pseudomonas aeruginosa, UniProt P14489); experiment: SBL inhibition, OXA-10; assay type: biochemical; settings: read-out: residual activity OXA-10
T9 construct: made in house
T9 sequence (P14489 20-266, species assumed): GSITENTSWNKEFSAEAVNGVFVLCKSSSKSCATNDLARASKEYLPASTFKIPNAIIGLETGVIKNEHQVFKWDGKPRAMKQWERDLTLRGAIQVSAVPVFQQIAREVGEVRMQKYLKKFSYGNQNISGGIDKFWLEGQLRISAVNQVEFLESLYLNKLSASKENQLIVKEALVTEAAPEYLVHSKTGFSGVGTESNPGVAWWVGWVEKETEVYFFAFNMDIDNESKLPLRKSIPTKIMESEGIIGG
Protocol: as §1
as §2, with “ions. We also screened the inhibitors against a representative panel of SBLs from different classes (TEM-1, Temoneira β-lactamase-1, class A; CTX-M-15, cefotaxime hydrolysing β-lactamase from Munich 15, class A, extended spectrum β-lactamase (ESBL); AmpC E. coli, class C, and OXA-10, oxacillinase-10, class D).” for “ions.”
as §4, §5, §6

[3] = Table 2, read-out: IC50 versus SPM-1
[4] = Table 2, read-out: IC50 versus BcII
[5] = enethiols 6 assayed as sodium salts, 10 min incubation, read-out: IC50 SPM-1 (converted)
[6] = enethiols 6 assayed as sodium salts, 10 min incubation, read-out: IC50 VIM-2 (converted)
[7] = enethiols 6 assayed as sodium salts, 10 min incubation, read-out: IC50 NDM-1
[8] = enethiols 6 assayed as sodium salts, 10 min incubation, read-out: IC50 BcII (converted)
[9] = enethiols 6 assayed as sodium salts, 10 min incubation, read-out: IC50 IMP-1 (converted)
[10] = Table 2, read-out: IC50 versus CphA

Chain of SPM-1 (Q8G9Q0 entry or part of it): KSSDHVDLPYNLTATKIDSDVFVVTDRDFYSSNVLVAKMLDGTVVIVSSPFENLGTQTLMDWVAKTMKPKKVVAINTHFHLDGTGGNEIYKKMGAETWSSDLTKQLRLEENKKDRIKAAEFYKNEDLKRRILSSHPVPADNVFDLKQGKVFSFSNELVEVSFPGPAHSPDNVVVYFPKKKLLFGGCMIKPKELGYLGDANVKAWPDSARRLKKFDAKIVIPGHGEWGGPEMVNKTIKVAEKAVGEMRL

Structure (SMILES)	IC50 (SPM-1; [3]) [nM]	IC50 (CphA) [nM]	IC50 (BcII; [4]) [nM]	IC50 (SPM-1; [5]) [nM]	IC50 (VIM-2; [6]) [nM]	IC50 (NDM-1; [7]) [nM]	IC50 (BcII; [8]) [nM]	IC50 (IMP-1; [9]) [nM]	other results
O=C(O)C(O)Cc1ccccc1 (centres unmarked) [3-Phenyllactic acid, reference compound]	> 100000	> 100000	> 100000	–	–	–	–	–	IC50 (VIM-2): > 100000 nM; IC50 (IMP-1): > 100000 nM; IC50 (NDM-1): > 100000 nM; MBL inhibition, result in words [1]: inactive
O=C(O)C(O)c1ccccc1 (centres unmarked) [Mandelic acid, reference compound]	> 100000	> 100000	> 100000	–	–	–	–	–	IC50 (VIM-2): > 100000 nM; IC50 (IMP-1): > 100000 nM; IC50 (NDM-1): > 100000 nM; MBL inhibition, result in words [1]: inactive
CN1CCN(NC(=O)CN2C(=O)S/C(=C\c3c(Cl)ccc(Cl)c3Cl)C2=O)CC1 [Compound 10]	–	–	–	500 ± 40	200 ± 20	> 50000	600 ± 50	–	hydrolysis by 1H NMR (700 MHz) [2]: did not observe hydrolysis
O=C(O)/C(S)=C/c1c(Cl)cccc1Cl [Compound 6m]	–	800 ± 20	–	10	30	600	70	10	IC50 ([1]; lower end of the range, read-out: IC50 values from (lowest across the MBL panel)): 10 nM
CN1CCN(NC(=O)CN2C(=O)/C(=C/c3c4ccccc4cc4ccccc34)SC2=S)CC1 [Compound 5r]	–	–	–	–	–	–	–	–	remaining activity at 200 µM (CTX-M-15): ~40%; remaining activity at 200 µM (AmpC): ~18%; remaining activity at 200 µM (TEM-1): ~6%; remaining activity at 200 µM (OXA-10): ~47%
CN1CCN(NC(=O)CN2C(=O)/C(=C/c3c(Cl)ccc(Cl)c3Cl)SC2=S)CC1 [ML302, reference compound]	–	–	–	100	60	15600	300	90	fold less active than ML302F, SPM-1 (SPM-1; ratio of IC50 values): ~5 fold; IC50 (CphA; read-out: IC50 CphA): > 50000 nM; fold less active than ML302F, NDM-1 (NDM-1; ratio of IC50 values): ~15 fold; fold less active than ML302F, BcII (BcII; ratio of IC50 values): ~4 fold
O=C(O)/C(S)=C/c1ccccc1 [Compound 6a]	–	–	700 ± 200	300	400	7900	700	300	IC50 (CphA; [10]): 2100 ± 20 nM
O=C(O)C(S)Cc1ccccc1 (centres unmarked) [Compound 13b]	70 ± 1	–	1400 ± 300	–	–	–	–	–	IC50 (CphA; [10]): 130000 ± 10000 nM; IC50 (VIM-2; Table 2, read-out: IC50 versus VIM-2): 70 ± 2 nM; IC50 (IMP-1; Table 2, read-out: IC50 versus IMP-1): 50 ± 2 nM; IC50 (NDM-1; Table 2, read-out: IC50 versus NDM-1): 38700 ± 4700 nM
O=C(O)/C(S)=C/c1c2ccccc2cc2ccccc12 [Compound 6r]	–	–	–	–	50 ± 1	1700 ± 600	> 50000	–	remaining activity at 200 µM (CTX-M-15): ~65%; remaining activity at 200 µM (AmpC): ~41%; remaining activity at 200 µM (TEM-1): ~1%; remaining activity at 200 µM (OXA-10): ~47%
CN1CCN(NC(=O)CN2C(=O)/C(=C/c3ccccc3)SC2=S)CC1 [Compound 5a]	–	> 50000	–	> 50000	16400	26700	> 50000	22700	–
